In patent US9260429B2, “Pyrido[3,4-B]indoles and methods of use” (Medivation Technologies, Inc., priority 2008, dated 2016):

Key:
[1] = biological target: T1, human recombinant serotonin (5-Hydroxytryptamine) 5-HT2A receptor (Homo sapiens, UniProt P28223); assay: Serotonin 5-HT2A radioligand binding ([3H]Ketanserin); details: 1 h; read-out: Percent Inhibition of ligand binding Serotonin (1 μM ligand concentration) 5-HT2A
T1 construct: expressed in transfected cells; host or cells: CHO-K1 cells
Method: To evaluate in radioligand binding assays the activity of compounds of the invention, human recombinant serotonin (5-Hydroxytryptamine) 5-HT2A receptor expressed in Chinese hamster ovary (CHO-K1) cells (Bonhaus, D. W. et al. Br. J. Pharmacol. 115:622, 1995; Saucier, C. and Albert, P. R., J. Neurochem. 68:1998, 1997) in a 50 mM Tris-HCl buffer, pH 7.4, was used. Compounds of the invention were incubated with 0.5 nM [^3H]Ketanserin for 60 minutes at 25° C. Non-specific binding was estimated in the presence of 1 μM Mianserin. Receptor proteins were filtered and washed, the filters were then counted to determine [^3H]Ketanserin specifically bound. Compounds were screened at 1 μM or lower, using 1% DMSO as vehicle. Biochemical assay results are presented as the percent inhibition of specific binding in Table 5.

[2] = biological target: T2, human recombinant histamine H1 receptor (Homo sapiens, UniProt P35367); assay: Histamine H1 radioligand binding ([3H]Pyrilamine); details: 1 μM; read-out: Binding data (Percentage Inhibition) Histamine Binding (1 μM) H1
T2 construct: expressed in transfected cells; host or cells: CHO cells
T2 sequence (P35367 whole entry): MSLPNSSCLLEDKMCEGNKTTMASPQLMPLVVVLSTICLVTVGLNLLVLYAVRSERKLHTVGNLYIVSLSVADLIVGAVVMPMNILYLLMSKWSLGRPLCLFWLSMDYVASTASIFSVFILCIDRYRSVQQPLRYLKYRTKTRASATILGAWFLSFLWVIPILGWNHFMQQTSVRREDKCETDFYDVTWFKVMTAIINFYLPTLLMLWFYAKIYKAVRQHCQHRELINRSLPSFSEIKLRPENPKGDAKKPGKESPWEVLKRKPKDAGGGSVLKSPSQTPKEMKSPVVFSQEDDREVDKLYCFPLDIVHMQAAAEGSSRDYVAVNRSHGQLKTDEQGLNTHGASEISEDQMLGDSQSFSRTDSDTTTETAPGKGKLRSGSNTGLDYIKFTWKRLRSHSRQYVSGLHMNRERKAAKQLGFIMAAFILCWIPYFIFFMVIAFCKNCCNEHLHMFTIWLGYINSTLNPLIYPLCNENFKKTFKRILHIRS
Method: To evaluate in radioligand binding assays the activity of compounds of the invention, human recombinant histamine H1 receptor expressed in Chinese hamster ovary (CHO) cells (De Backer, M. D. et al., Biochem. Biophys. Res. Comm. 197(3):1601, 1993) in a modified Tris-HCl buffer (50 mM Tris-HCl, pH 7.4, 2 mM MgCl2, 100 mM NaCl, 250 mM Sucrose) was used. Compounds of the invention were incubated with 1.2 nM [^3H]Pyrilamine for 180 minutes at 25° C. Non-specific binding was estimated in the presence of 1 μM pyrilamine. Receptor proteins were filtered and washed, the filters were then counted to determine [^3H]Pyrilamine specifically bound. […] Biochemical assay results are presented as the percent inhibition of specific binding in Table 3.

[3] = biological target: T3, human recombinant adrenergic α1D receptor (Homo sapiens, UniProt P25100); assay: Adrenergic α1D radioligand binding ([3H]Prozosin); details: 1 h; read-out: Percent Inhibition of ligand binding Adrenergic (1 μM ligand conc.) α1D
T3 construct: expressed in transfected cells; host or cells: HEK-293 cells
T3 sequence (P25100 1-572): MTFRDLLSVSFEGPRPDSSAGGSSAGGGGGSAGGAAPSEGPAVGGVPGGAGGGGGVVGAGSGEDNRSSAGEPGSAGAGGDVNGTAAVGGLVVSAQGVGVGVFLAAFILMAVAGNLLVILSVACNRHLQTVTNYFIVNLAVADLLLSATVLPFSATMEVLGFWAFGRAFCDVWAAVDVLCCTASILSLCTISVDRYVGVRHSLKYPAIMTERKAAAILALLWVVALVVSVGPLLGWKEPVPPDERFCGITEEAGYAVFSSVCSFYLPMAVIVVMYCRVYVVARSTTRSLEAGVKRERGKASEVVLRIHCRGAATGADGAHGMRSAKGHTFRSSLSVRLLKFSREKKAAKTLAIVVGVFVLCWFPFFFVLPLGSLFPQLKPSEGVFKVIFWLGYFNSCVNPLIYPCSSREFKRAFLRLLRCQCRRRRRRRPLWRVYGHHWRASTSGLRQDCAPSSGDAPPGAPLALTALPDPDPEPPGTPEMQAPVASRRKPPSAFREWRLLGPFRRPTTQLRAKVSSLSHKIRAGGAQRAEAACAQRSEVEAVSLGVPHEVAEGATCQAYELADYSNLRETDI
Method: To evaluate in radioligand binding assays the activity of compounds of the invention, human recombinant adrenergic a1D receptor expressed in human embryonic kidney (HEK-293) cells (Kenny, B. A. et al. Br. J. Pharmacol. 115(6):981, 1995) in a 50 mM Tris-HCl buffer, pH 7.4, was used. Compounds of invention were incubated with 0.6 nM [^3H]Prozosin for 60 minutes at 25° C. Non-specific binding was estimated in the presence of 10 μM phentolamine. Receptor proteins were filtered and washed, the filters were then counted to determine [^3H]Prozosin specifically bound. Compounds were screened at 1 μM or lower, using 1% DMSO as vehicle. Biochemical assay results are presented as the percent inhibition of specific binding in Table 4. Adrenergic a2A

[4] = biological target: T4, human recombinant dopamine D2L receptor (Homo sapiens, UniProt P14416); assay: Dopamine D2L radioligand binding ([3H]Spiperone); details: 2 h, 1 μM ligand conc.; read-out: Percent Inhibition of ligand binding Dopamine (1 μM ligand conc.) D2L
T4 construct: expressed in transfected cells; host or cells: CHO cells
T4 sequence (P14416 whole entry): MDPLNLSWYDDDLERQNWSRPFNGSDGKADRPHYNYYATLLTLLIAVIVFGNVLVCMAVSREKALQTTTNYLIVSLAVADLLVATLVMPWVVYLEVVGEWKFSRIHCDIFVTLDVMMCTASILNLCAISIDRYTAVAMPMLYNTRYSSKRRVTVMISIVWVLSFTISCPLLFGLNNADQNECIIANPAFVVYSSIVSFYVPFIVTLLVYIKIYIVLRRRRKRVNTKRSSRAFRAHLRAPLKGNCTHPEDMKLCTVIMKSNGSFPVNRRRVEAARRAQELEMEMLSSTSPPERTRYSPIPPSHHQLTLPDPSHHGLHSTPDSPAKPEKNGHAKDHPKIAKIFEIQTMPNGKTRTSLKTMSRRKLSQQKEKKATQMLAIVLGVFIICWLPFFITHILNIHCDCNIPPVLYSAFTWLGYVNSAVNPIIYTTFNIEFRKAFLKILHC
Method: To evaluate in radioligand binding assays the activity of compounds of the invention, human recombinant dopamine D2L receptor expressed in Chinese hamster ovary (CHO) cells (Grandy, D. K. et al. Proc. Natl. Acad. Sci. USA. 86:9762, 1989; Hayes, G. et al., Mol. Endocrinol. 6:920, 1992) in a modified Tris-HCl buffer (50 mM Tris-HCl, pH 7.4, 1.4 mM Ascorbic Acid, 0.001% BSA, 150 mM NaCl) was used. Compounds of the invention were incubated with 0.16 nM [^3H]Spiperone for 120 minutes at 25° C. Non-specific binding was estimated in the presence of […] Haloperidol. Receptor proteins were filtered and washed, the filters were then counted to determine [^3H]Spiperone specifically bound. Compounds were screened at 1 μM or lower, using 1% DMSO as vehicle. Biochemical assay results are presented as the percent inhibition of specific binding in Table 4.

[5] = biological target: T5, human recombinant serotonin (5-Hydroxytryptamine) 5-HT6 receptor (Homo sapiens, UniProt P50406); assay: Serotonin 5-HT6 radioligand binding ([3H]LSD); details: 2 h; read-out: Percent Inhibition of ligand binding Serotonin (1 μM ligand concentration) 5-HT6
T5 construct: expressed in transfected cells; host or cells: human HeLa cells
T5 sequence (P50406 whole entry): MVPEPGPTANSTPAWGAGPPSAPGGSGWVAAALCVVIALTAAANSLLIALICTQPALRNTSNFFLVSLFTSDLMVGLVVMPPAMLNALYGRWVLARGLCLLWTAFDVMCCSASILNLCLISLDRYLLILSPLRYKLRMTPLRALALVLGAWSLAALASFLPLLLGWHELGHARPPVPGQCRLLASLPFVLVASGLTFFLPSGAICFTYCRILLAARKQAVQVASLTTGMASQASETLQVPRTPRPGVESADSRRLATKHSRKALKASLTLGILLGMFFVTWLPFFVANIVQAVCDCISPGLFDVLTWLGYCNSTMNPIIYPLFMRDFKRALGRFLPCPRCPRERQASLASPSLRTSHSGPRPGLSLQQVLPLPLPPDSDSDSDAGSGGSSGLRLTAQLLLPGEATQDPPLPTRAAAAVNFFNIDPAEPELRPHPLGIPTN
Method: To evaluate in radioligand binding assays the activity of compounds of the invention, human recombinant serotonin (5-Hydroxytryptamine) 5-HT6 receptor expressed in human HeLa cells (Monsma, F. J. Jr. et al., Mol. Pharmacol. 43:320, 1993) in a modified Tris-HCl buffer (50 mM Tris-HCl, pH 7.4, 150 mM NaCl, 2 mM Ascorbic Acid, 0.001% BSA) was used. Compounds of the invention were incubated with 1.5 nM [3H]Lysergic acid diethylamide (LSD) for 120 minutes at 37° C. Non-specific binding was estimated in the presence of […] Serotonin (5-HT). Receptor proteins were filtered and washed, the filters were then counted to determine [3H]LSD specifically bound. Compounds were screened at 1 μM or lower, using 1% DMSO as vehicle. Biochemical assay results are presented as the percent inhibition of specific binding in Table 5.

T1 sequence (P28223 whole entry): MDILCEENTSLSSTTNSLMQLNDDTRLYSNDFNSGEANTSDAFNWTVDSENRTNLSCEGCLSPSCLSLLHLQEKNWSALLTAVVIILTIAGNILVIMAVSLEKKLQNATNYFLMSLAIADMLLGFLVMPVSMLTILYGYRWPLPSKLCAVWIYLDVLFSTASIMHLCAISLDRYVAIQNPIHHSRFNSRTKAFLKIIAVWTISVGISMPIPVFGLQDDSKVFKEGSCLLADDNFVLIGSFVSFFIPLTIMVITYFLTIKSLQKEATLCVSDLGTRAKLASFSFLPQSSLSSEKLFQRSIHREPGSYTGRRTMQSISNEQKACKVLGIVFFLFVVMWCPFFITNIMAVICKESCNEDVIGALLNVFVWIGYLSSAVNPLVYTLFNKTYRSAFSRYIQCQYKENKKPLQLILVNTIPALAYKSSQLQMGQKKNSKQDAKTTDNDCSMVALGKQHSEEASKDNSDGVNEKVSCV

Row | SMILES | inhibition at 1 µM [1] | inhibition at 1 µM [2] | inhibition at 1 µM [3] | inhibition at 1 µM [4] | inhibition at 1 µM [5]
1 | CC1c2c(c3cc(Cl)ccc3n2C#Cc2ccc(F)cc2)CCN1C (centres unmarked) [Compound 128] | 95% | 32% | 25% | 14% | 90%
2 | CN1CCc2c(n(CC(=O)N3CCCC3)c3ccc(Cl)cc23)C1 [Compound 40, 2-(6-chloro-1,2,3,4-tetrahydro-2-methylpyrido[3,4-b]indol-9-yl)-1-(pyrrolidin-1-yl)ethanone] | 5% | 7% | 3% | -11% | 6%
3 | C/C(=C/n1c2c(c3cc(C)ccc31)CCN(C)C2C)c1ccccc1F (centres unmarked) [Compound 165] | 85% | 21% | 26% | 6% | 46%
4 | CN1CCc2c(n(CC(=O)N3CCCCC3)c3ccc(Cl)cc23)C1 [Compound 58, 2-(6-chloro-2-methyl-3,4-dihydro-1H-pyrido[3,4-b]indol-9(2H)-yl)-1-(piperidin-1-yl)ethanone] | -10% | 2% | 19% | -5% | -7%
5 | CN1CCc2c(n(CCCc3ccccc3)c3ccc(Cl)cc23)C1 [Compound 29, 6-chloro-2,3,4,9-tetrahydro-2-methyl-9-(3-phenylpropyl)-1H-pyrido[3,4-b]indole] | 83% | 98% | 84% | 24% | 62%
6 | COC(=O)Cn1c2c(c3cc(Cl)ccc31)CCN(C)C2 [Compound 54, methyl 2-(6-chloro-2-methyl-3,4-dihydro-1H-pyrido[3,4-b]indol-9(2H)-yl)acetate] | 0% | 5% | 11% | -16% | 8%
7 | CN1CCc2c(n(CC(=O)N(C)C)c3ccc(Cl)cc23)C1 [Compound 16, 2-(6-chloro-1,2,3,4-tetrahydro-2-methylpyrido[3,4-b]indol-9-yl)-N,N-dimethylacetamide] | 10% | 16% | 2% | -7% | 9%
8 | C/C(=C/n1c2c(c3cc(Cl)ccc31)CCN(C)C2C)c1ccccc1F (centres unmarked) [Compound 167] | 88% | 64% | 36% | 22% | 55%
9 | CN1CCc2c(n(CC(C)(O)c3ccc(F)cc3)c3ccc(Cl)cc23)C1 (centres unmarked) [Compound 62, 1-(6-chloro-2-methyl-3,4-dihydro-1H-pyrido[3,4-b]indol-9(2H)-yl)-2-(4-fluorophenyl)propan-2-ol] | 88% | 48% | 44% | 81% | 77%
10 | Cc1ccc2c(c1)c1c(n2CCc2ccc(C)nc2)CN(C)CC1 [Compound 1, 2,3,4,9-tetrahydro-2,6-dimethyl-9-(2-(6-methylpyridin-3-yl)ethyl)-1H-pyrido[3,4-b]indole] | – | 77% | 65% | 6% | 5%
11 | CN1CCc2c(n(CCc3ccc(F)cc3)c3ccc(Cl)cc23)C1 [Compound 3, 9-(4-fluorophenethyl)-6-chloro-2,3,4,9-tetrahydro-2-methyl-1H-pyrido[3,4-b]indole] | – | 83% | 77% | 47% | 100%
12 | Cc1ccc2c(c1)c1c(n2CCC2CCCCC2)CN(C)CC1 [Compound 2, 9-(2-cyclohexylethyl)-2,3,4,9-tetrahydro-2,6-dimethyl-1H-pyrido[3,4-b]indole] | – | 95% | 42% | -7% | 58%
13 | C#CCn1c2c(c3cc(Cl)ccc31)CCN(C)C2 [Compound 125, 6-chloro-2,3,4,9-tetrahydro-2-methyl-9-(prop-2-yn1)-1H-pyrido[3,4-b]indole] | – | 83% | 93% | 19% | 66%
14 | CC1CCN(C(=O)Cn2c3c(c4cc(Cl)ccc42)CCN(C)C3)CC1 [Compound 38, 2-(6-chloro-1,2,3,4-tetrahydro-2-methylpyrido[3,4-b]indol-9-yl)-1-(4-methylpiperidin-1-vyl)ethanone] | – | 16% | 25% | -8% | -2%
